Results on nine compounds are retold here after US20240024488A1, “COMPOUNDS AND USES THEREOF” (Foghorn Therapeutics Inc., priority 2020, published 2024).

Structures are written as SMILES.

In assay [1] the target is T1, HiBit-BRG1 fusion protein (Homo sapiens, UniProt P51532).
T1 construct: expressed in transfected cells
Briefly: HiBiT-BRG1 cell-based degradation assay (Nano-Glo HiBiT Lytic Detection, 24 h). Conditions: HeLa cell line expressing HiBit-BRG1 and LgBit; for Dmax: read-out: BRG1 HiBit Degradation Maximum (%). Summed up: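 Stable HeLa line co-expressing HiBit-BRG1 and LgBit, 5000 cells/well, treated 24 h in a tissue culture incubator. Lysed with Nano-Glo HiBiT lytic reagent, luminescence read. % degradation normalized to DMSO (high control) and 2 μM reference BRM/BRG1 degrader (low control).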
For orientation: With HiBiT, luminescence reflects the tagged protein that the partner subunit can reach.

In a further assay the target is T2, HiBit-BRM fusion protein (Homo sapiens, UniProt P51531).
T2 construct: expressed in transfected cells
The assay is described as follows: HiBiT-BRM cell-based degradation assay (Nano-Glo HiBiT Lytic Detection, 24 h). Conditions: HeLa cell line expressing HiBiT-BRM; for DC50: read-out: BRM HiBit Degradation IC50. Summed up:
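HeLa cells stably expressing HiBiT-BRM were treated for 24 h with compounds (10-point 3-fold dilutions, 30 μM final top dose, in duplicate). HiBiT was detected by lytic LgBiT complementation luminescence. % degradation was normalized to DMSO (high control) and 2 μM of a reference BRM/BRG1 degrader (low control).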

T2 sequence (P51531 whole entry, the tested form may be a part): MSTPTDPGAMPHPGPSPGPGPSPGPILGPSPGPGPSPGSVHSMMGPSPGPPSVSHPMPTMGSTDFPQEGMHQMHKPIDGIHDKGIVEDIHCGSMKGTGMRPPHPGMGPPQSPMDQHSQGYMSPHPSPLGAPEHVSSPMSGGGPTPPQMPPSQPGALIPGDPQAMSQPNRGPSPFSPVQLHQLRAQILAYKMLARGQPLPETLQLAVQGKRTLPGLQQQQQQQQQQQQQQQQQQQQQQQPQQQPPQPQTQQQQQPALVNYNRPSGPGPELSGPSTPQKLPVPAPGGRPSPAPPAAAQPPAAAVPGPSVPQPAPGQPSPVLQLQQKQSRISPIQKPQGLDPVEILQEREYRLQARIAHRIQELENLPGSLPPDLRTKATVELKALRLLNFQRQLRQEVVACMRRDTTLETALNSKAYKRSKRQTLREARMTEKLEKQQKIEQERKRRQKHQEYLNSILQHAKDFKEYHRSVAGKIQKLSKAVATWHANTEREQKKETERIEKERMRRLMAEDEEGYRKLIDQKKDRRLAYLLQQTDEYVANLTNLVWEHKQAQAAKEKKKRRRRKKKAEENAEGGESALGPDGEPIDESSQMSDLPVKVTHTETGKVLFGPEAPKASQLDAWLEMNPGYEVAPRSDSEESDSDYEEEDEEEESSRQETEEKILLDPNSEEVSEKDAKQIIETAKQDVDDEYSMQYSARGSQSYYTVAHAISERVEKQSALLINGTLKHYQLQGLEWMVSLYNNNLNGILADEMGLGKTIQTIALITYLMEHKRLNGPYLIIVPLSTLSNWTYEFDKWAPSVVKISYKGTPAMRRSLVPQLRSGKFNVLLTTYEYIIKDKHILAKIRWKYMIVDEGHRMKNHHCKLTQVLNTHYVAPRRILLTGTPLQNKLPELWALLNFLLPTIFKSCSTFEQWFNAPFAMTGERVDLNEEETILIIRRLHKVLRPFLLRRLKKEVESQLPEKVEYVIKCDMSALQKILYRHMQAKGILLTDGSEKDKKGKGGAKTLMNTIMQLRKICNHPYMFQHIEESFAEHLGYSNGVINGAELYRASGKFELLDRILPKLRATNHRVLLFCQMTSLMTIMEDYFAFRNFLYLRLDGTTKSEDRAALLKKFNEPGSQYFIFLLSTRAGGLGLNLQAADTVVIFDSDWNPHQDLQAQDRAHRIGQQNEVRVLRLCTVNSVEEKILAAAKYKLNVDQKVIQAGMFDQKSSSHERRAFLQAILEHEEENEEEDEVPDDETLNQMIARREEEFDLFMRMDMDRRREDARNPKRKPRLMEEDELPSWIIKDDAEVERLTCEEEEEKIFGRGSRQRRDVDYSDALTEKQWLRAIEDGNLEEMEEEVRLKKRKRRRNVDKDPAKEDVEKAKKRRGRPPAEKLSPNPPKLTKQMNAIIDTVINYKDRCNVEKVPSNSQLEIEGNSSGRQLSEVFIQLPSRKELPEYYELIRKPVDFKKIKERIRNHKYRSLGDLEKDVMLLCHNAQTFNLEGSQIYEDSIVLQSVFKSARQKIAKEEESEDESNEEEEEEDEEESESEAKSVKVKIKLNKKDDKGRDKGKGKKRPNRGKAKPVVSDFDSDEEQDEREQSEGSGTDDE
T1 sequence (P51532 whole entry, the tested form may be a part): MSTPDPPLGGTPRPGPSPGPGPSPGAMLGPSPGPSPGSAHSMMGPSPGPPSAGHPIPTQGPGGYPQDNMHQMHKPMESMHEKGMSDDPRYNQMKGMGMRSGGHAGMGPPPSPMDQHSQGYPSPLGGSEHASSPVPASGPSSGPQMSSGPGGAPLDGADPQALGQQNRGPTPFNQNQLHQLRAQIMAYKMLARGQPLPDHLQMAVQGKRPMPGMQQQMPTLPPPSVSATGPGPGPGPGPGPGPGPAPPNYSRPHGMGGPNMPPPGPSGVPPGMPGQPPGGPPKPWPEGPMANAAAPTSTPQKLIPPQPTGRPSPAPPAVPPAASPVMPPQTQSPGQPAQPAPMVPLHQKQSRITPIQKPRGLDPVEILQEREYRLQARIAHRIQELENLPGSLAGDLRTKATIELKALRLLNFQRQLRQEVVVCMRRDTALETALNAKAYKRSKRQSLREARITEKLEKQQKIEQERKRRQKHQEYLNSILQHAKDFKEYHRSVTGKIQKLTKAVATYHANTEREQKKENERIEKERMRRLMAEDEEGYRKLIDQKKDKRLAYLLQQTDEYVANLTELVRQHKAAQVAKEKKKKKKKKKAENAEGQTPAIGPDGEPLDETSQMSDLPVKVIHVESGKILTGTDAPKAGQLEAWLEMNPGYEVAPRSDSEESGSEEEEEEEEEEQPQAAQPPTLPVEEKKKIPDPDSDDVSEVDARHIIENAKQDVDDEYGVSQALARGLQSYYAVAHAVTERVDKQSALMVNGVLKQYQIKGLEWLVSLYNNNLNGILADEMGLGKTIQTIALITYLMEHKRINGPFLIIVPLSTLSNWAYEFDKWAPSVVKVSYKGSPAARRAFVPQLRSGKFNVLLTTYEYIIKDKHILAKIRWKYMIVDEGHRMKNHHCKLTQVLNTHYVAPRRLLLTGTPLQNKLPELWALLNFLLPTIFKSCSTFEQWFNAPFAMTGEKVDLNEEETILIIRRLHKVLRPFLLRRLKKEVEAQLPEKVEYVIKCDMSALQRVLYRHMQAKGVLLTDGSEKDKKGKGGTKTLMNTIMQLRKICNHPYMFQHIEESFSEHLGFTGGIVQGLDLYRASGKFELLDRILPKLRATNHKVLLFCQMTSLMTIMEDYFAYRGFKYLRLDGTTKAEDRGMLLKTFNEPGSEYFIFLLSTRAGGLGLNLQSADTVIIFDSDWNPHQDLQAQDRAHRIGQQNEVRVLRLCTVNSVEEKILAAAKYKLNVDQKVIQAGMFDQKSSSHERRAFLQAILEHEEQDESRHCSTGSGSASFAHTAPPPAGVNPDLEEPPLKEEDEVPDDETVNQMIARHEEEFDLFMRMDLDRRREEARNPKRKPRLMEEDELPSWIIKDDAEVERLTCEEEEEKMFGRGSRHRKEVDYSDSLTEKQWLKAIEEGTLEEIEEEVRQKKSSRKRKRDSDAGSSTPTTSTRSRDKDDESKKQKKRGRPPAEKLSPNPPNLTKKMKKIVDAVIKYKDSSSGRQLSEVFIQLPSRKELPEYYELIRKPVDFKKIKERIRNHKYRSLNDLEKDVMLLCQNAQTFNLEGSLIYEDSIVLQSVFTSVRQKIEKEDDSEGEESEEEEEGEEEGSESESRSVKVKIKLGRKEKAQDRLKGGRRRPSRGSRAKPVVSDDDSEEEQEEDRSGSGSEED

`Cc1ncsc1-c1ccc(CNC(=O)[C@@H]2C[C@@H](O)CN2C(=O)[C@@H](NC(=O)CCCCCCCCCCCCCC(=O)N2CC(c3cc4cc(-c5ccccc5O)nnc4[nH]3)C2)C(C)(C)C)cc1` [Compound 20, (2S,4R)-4-hydroxy-1-((S)-2-(15-(3-(3-(2-hydroxyphenyl)-7H-pyrrolo[2,3-c]pyridazin-6-yl)azetidin-1-yl)-15-oxopentadecanamido)-3,3-dimethylbutanoyl)-N-(4-(4-methylthiazol-5-yl)benzyl)pyrrolidine-2-carboxamide]: the Dmax in assay [1] is below 50%. The “BRM HiBit Degradation Maximum (%)” value at HiBit-BRM fusion protein was “C (“C” indicates maximum degradation < 50%)”.

Take `Cc1ncsc1-c1ccc([C@H](C)NC(=O)[C@@H]2C[C@@H](O)CN2C(=O)[C@@H](c2cc(OCCN3CC(c4[nH]c5nnc(-c6ccccc6O)cc5c4F)C3)no2)C(C)C)cc1` (racemic) [Compound 121, (2S,4R)-1-[(2R)-2-[3-(2-{3-[5-fluoro-3-(2-hydroxyphenyl)-7H-pyrrolo[2,3-c]pyridazin-6-yl]azetidin-1-yl}ethoxy)-1,2-oxazol-5-yl]-3-methylbutanoyl]-4-hydroxy-N-[(1S)-1-[4-(4-methyl-1,3-thiazol-5-yl)phenyl]ethyl]pyrrolidine-2-carboxamide]: the Dmax in assay [1] was below 50%. Besides, on HiBit-BRM fusion protein, the “BRM HiBit Degradation Maximum (%)” value is “A (“A” indicates maximum degradation ≥ 75%)” and the DC50 is above 100 nM.

In the case of `Cc1ncsc1-c1ccc(CNC(=O)[C@@H]2C[C@@H](O)CN2C(=O)[C@@H](NC(=O)CCCCCCCCCCC(=O)N2CC(c3cc4cc(-c5ccccc5O)nnc4[nH]3)C2)C(C)(C)C)cc1` [Compound 4, (2S,4R)-4-hydroxy-1-((S)-2-(12-(3-(3-(2-hydroxyphenyl)-7H-pyrrolo[2,3-c]pyridazin-6-yl)azetidin-1-yl)-12-oxododecanamido)-3,3-dimethylbutanoyl)-N-(4-(4-methylthiazol-5-yl)benzyl)pyrrolidine-2-carboxamide], the Dmax in assay [1] was below 50%. At HiBit-BRM fusion protein, the “BRM HiBit Degradation Maximum (%)” value is “A (“A” indicates maximum degradation ≥ 75%)” and the DC50 was above 100 nM.

Turning to `Cc1ncsc1-c1ccc([C@H](C)NC(=O)[C@@H]2C[C@@H](O)CN2C(=O)[C@@H](c2cc(N3CCC(CN4CCc5[nH]c6nnc(-c7ccccc7O)cc6c5[C@@H]4C)CC3)no2)C(C)C)cc1` (racemic) [Compound 83, (2S,4R)-4-hydroxy-1-[(2R)-2-[3-(4-{[(3S)-12-(2-hydroxyphenyl)-3-methyl-4,8,10,11-tetraazatricyclo[7.4.0.0^{2,7}]trideca-1(13),2(7),9,11-tetraen-4-yl]methyl}piperidin-1-yl)-1,2-oxazol-5-yl]-3-methylbutanoyl]-N-[(1S)-1-[4-(4-methyl-1,3-thiazol-5-yl)phenyl]ethyl]pyrrolidine-2-carboxamide], in assay [1], the Dmax was above 75%. The DC50 (in assay [1] (read-out: BRMG1 HiBit Degradation IC50); at HiBit-BRM fusion protein) was above 10 nM in each case. The “BRM HiBit Degradation Maximum (%)” value at HiBit-BRM fusion protein is given as “A (“A” indicates maximum degradation ≥ 75%)”.

Take `Cc1ncsc1-c1ccc([C@H](C)NC(=O)[C@@H]2C[C@@H](O)CN2C(=O)[C@@H](c2cc(C3CCN(C(=O)[C@@]4(N)CCc5[nH]c6nnc(-c7ccccc7O)cc6c5C4)CC3)no2)C(C)C)cc1` (relative stereo) [Compound 103, (2S,4R)-1-[(2R)-2-(3-{1-[(6R*)-6-amino-3-(2-hydroxyphenyl)-5H,7H,8H,9H-pyridazino[3,4-blindole-6-carbonyl]piperidin-4-yl}-1,2-oxazol-5-yl)-3-methylbutanoyl]-4-hydroxy-N-[(1S)-1-[4-(4-methyl-1,3-thiazol-5-yl)phenyl]ethyl]pyrrolidine-2-carboxamide]: in assay [1], the Dmax is below 50%. At HiBit-BRM fusion protein, the “BRM HiBit Degradation Maximum (%)” value was “B (“B” indicates maximum degradation ≥ 50%)” and the DC50 is above 100 nM.

For the compound `Cc1ncsc1-c1ccc([C@H](C)NC(=O)[C@@H]2C[C@@H](O)CN2C(=O)[C@@H](c2cc(OCC(=O)N3CC4(Cc5cc(-c6ccccc6O)nnc5N4)C3)no2)C(C)C)cc1` (racemic) [Compound 95, (2S,4R)-4-hydroxy-1-((R)-2-(3-(2-(3′-(2-hydroxyphenyl)-5′,7′-dihydrospiro[azetidine-3,6′-pyrrolo[2,3-c]pyridazin]-1-yl)-2-oxoethoxy)isoxazol-5-yl)-3-methylbutanoyl)-N-((S)-1-(4-(4-methylthiazol-5-yl)phenyl)ethyl)pyrrolidine-2-carboxamide], the Dmax in assay [1] was below 50%. At HiBit-BRM fusion protein, the “BRM HiBit Degradation Maximum (%)” value is given as “B (“B” indicates maximum degradation ≥ 50%)” and the DC50 was above 1000 nM.

In the case of `Cc1ncsc1-c1ccc([C@H](C)NC(=O)[C@@H]2C[C@@H](O)CN2C(=O)[C@@H](NC(=O)CCCCCCCCC(=O)N2CC(c3cc4cc(-c5ccccc5O)nnc4[nH]3)C2)C(C)(C)C)cc1` [Compound 1, (2S,4R)-4-hydroxy-1-((S)-2-(10-(3-(3-(2-hydroxyphenyl)-7H-pyrrolo[2,3-c]pyridazin-6-yl)azetidin-1-yl)-10-oxodecanamido)-3,3-dimethylbutanoyl)-N—((S)-1-(4-(4-methylthiazol-5-yl)phenyl)ethyl)pyrrolidine-2-carboxamide], the Dmax in assay [1] is below 50%. Further, at HiBit-BRM fusion protein, the “BRM HiBit Degradation Maximum (%)” value was “A (“A” indicates maximum degradation ≥ 75%)” and the DC50 was above 100 nM.

With `Cc1ncsc1-c1ccc([C@H](C)NC(=O)[C@@H]2C[C@@H](O)CN2C(=O)[C@@H](c2cc(N3C[C@H]4C[C@@H]3CN4C(=O)[C@H]3C[C@]4(Cc5cc(-c6ccccc6O)nnc5N4)C3)no2)C(C)C)cc1` (racemic) [Compound 76, (2S,4R)-4-hydroxy-1-((R)-2-(3-((1R,4R)-5-((1S,3r)-3′-(2-hydroxyphenyl)-5′,7′-dihydrospiro[cyclobutane-1,6′-pyrrolo[2,3-c]pyridazine]-3-carbonyl)-2,5-diazabicyclo[2.2.1]heptan-2-yl)isoxazol-5-yl)-3-methylbutanoyl)-N-((S)-1-(4-(4-methylthiazol-5-yl)phenyl)ethyl)pyrrolidine-2-carboxamide], the Dmax in assay [1] was below 50%. For the same compound, on HiBit-BRM fusion protein, the “BRM HiBit Degradation Maximum (%)” value is “A (“A” indicates maximum degradation ≥ 75%)” and the DC50 was above 100 nM.

As to `Cc1ncsc1-c1ccc([C@H](C)NC(=O)[C@@H]2C[C@@H](O)CN2C(=O)[C@@H](c2cc(N(C)CCN3CC4(Cc5cc(-c6ccccc6O)nnc5N4)C3)no2)C(C)C)cc1` (racemic) [Compound 87, (2S,4R)-4-hydroxy-1-((R)-2-(3-((2-(3′-(2-hydroxyphenyl)-5′,7′-dihydrospiro[azetidine-3,6′-pyrrolo[2,3-c]pyridazin]-1-yl)ethyl)(methyl)amino)isoxazol-5-yl)-3-methylbutanoyl)-N-((S)-1-(4-(4-methylthiazol-5-yl)phenyl)ethyl)pyrrolidine-2-carboxamide], the Dmax in assay [1] is below 50%. Moreover, the “BRM HiBit Degradation Maximum (%)” value at HiBit-BRM fusion protein was “C (“C” indicates maximum degradation < 50%)”.
